{
  "source": "patent US20070259908A1",
  "about": "“Mitochondria Activators” (KANEKA CORPORATION, priority 2004, published 2007)",
  "key": {"[1]": {"system": "tissue of the pancreatic islets of Langerhans", "experiment": "Insulin secretion from cultured tissue of the pancreatic islets of Langerhans (ELISA), as index of mitochondria-activating activity / ATP production", "type": "cell-based, rat", "details": "for insulin concentration (secretion amount of insulin from tissue of the islets of Langerhans) / insulin concentration, value in parentheses (control = 100): 0.1 μg/ml of each test substance in medium, culture for 1 hr; for insulin concentration (secretion amount of insulin from tissue of the islets of Langerhans): ELISA, control 43 ± 8; for insulin concentration, value in parentheses (control = 100): relative to control (100); for increase of the concentration of insulin in the medium: addition amount of 0.1 μg/ml, versus control", "description": "Therefore, a tissue of the pancreatic islets of Langerhans, which reacts with ATP to secrete insulin, was used to evaluate the mitochondria-activating activity of a test substance, with the insulin secretion as an index. As the tissue of the pancreatic islets of Langerhans, a culture kit (manufactured by Hokudo Co., Ltd) prepared from a rat was used. […] In the same manner as in Example 1, a tissue of the pancreatic islets of Langerhans was used to evaluate the mitochondria-activating activity of a test substance, with the insulin secretion as an index. As the tissue of the pancreatic islets of Langerhans, a culture kit (manufactured by Hokudo Co., Ltd) prepared from a rat was used."}, "kidney": {"system": "kidney", "details": "reported in patent reference 5; narrow safety margin; cited from earlier work"}, "rats": {"system": "rats", "details": "consecutive administration of 1200 mg/Kg/day for 52 weeks; cited from earlier work"}},
  "data": [
    {"smiles": "COc1c(O)c(C)c(C/C=C(\\C)CC/C=C(\\C)CC/C=C(\\C)CC/C=C(\\C)CC/C=C(\\C)CC/C=C(\\C)CC/C=C(\\C)CC/C=C(\\C)CC/C=C(\\C)CCC=C(C)C)c(O)c1OC", "note": "[reduced coenzyme Q10]", "values": [
      {"measurement": "insulin concentration (secretion amount of insulin from tissue of the islets of Langerhans)", "setting": "[1]", "value": "360 ± 78", "unit": "ng/mL"},
      {"measurement": "insulin concentration, value in parentheses (control = 100)", "setting": "[1]", "value": 837},
      {"measurement": "increase of the concentration of insulin in the medium", "setting": "[1]", "value": 8.3, "unit": "fold"}
    ]},
    {"smiles": "COC1=C(OC)C(=O)C(C/C=C(\\C)CC/C=C(\\C)CC/C=C(\\C)CC/C=C(\\C)CC/C=C(\\C)CC/C=C(\\C)CC/C=C(\\C)CC/C=C(\\C)CC/C=C(\\C)CCC=C(C)C)=C(C)C1=O", "note": "[oxidized coenzyme Q10, reference compound]", "values": [
      {"measurement": "insulin concentration (secretion amount of insulin from tissue of the islets of Langerhans)", "setting": "[1]", "value": "329 ± 85", "unit": "ng/mL"},
      {"measurement": "insulin concentration, value in parentheses (control = 100)", "setting": "[1]", "value": 765},
      {"measurement": "increase of the concentration of insulin in the medium", "setting": "[1]", "value": 7.7, "unit": "fold"}
    ]},
    {"smiles": "O=C(O)c1cc(C(=O)O)c2c(n1)C(=O)C(=O)c1cc(C(=O)O)[nH]c1-2", "note": "[pyrroloquinoline quinone, 2,7,9-tricarboxy-1H-pyrrolo[2,3-f]quinoline-4,5-dione]", "values": [
      {"measurement": "insulin concentration (secretion amount of insulin from tissue of the islets of Langerhans)", "setting": "[1]", "value": "220 ± 56", "unit": "ng/mL"},
      {"measurement": "insulin concentration, value in parentheses (control = 100)", "setting": "[1]", "value": 511},
      {"measurement": "increase of the concentration of insulin in the medium", "setting": "[1]", "value": 5.1, "unit": "fold"},
      {"measurement": "toxicity to kidney", "setting": "kidney", "value": "strong toxicity to kidney"}
    ]},
    {"smiles": "O=C(O)CC(O)(CC(=O)O)C(=O)O", "note": "[citric acid]", "values": [
      {"measurement": "insulin concentration (secretion amount of insulin from tissue of the islets of Langerhans)", "setting": "[1]", "value": "2030 ± 391", "unit": "ng/mL"},
      {"measurement": "insulin concentration, value in parentheses (control = 100)", "setting": "[1]", "value": 4720},
      {"measurement": "increase of the concentration of insulin in the medium", "setting": "[1]", "value": 47, "unit": "fold"}
    ]},
    {"smiles": "COC1=C(OC)C(=O)C(C/C=C(\\C)CC/C=C(\\C)CC/C=C(\\C)CC/C=C(\\C)CC/C=C(\\C)CC/C=C(\\C)CC/C=C(\\C)CC/C=C(\\C)CC/C=C(\\C)CCC=C(C)C)=C(C)C1=O", "note": "[coenzyme Q10]", "values": [
      {"measurement": "toxic effect in chronic toxicity test", "setting": "rats", "value": "absence of toxic effect"}
    ]}
  ]
}
